Experiment: Human HepG2 cell viability assay in 384 well format
Type: toxicity, cell-based
Design: dose 125 nL, time 70.5 hour; concentration not given beside the values
Conditions: HepG2 cells, read-out: Inhibition

In order of rising cytotoxicity at 70.5 h:
1. COCCc1noc(-c2cc(Cl)c3c(c2)OCCCO3)n1  -19.1%
2. O=C1C[C@H]2[C@H](CCN2Cc2ccccn2)N1CC1CC1  -15.8%
3. Cc1nc(CN2CCN(C(=O)c3ccnc(N(C)C)c3)CC2)cs1  -14.4%
4. Cn1ccnc1CN1CCN(Cc2ccncc2)[C@@H]2CS(=O)(=O)C[C@@H]21  -13.6%
5. CCN(CCc1nccs1)C(=O)c1ncoc1C  -13.2%
6. Cn1cnnc1C1CCN(C(=O)CCCOc2ccccc2F)CC1  -12.8%
7. O=C(NCc1ccccc1Cn1cncn1)C1CC1  -11.8%
8. CN1C(=O)C[C@H]2[C@H]1CCN2Cc1cccc(C#N)c1  -11.7%
9. CC(C)N(Cc1nc(-c2cccs2)no1)CC1CCC(=O)N1 (stereo not drawn)  -11.1%
10. C/C(=C/c1ccccc1)CNCc1cccc(C(N)=O)c1  -10.9%
11. O=C(CN1C(=O)CCNC1=O)N1CCOC(c2ccc(Cl)c(Cl)c2)C1 (stereo not drawn)  -10.7%
12. O=C(Cc1ccc(S(=O)(=O)C(F)F)cc1)N1CCC1  -10.6%
13. Cc1occc1C(=O)N1C[C@@H](C(=O)NCc2ccco2)C[C@H]2OCC[C@H]21  -10.4%
14. CC(C)OCc1ccc(CNC(=O)NC2(CO)CCCC2)cc1  -10.3%
15. Cc1cc(N(C)C)nc(NCCn2cccn2)n1  -10%
16. Fc1ccc(CN2CCO[C@H]3[C@H](OCC4CCCC4)CC[C@@H]32)cc1  -9.77%
17. CCOC(=O)c1nc(CC(=O)Nc2ccc3cc[nH]c3c2)no1  -9.72%
18. O=C(c1ccco1)N1C[C@H]2CCCN(Cc3ccoc3)[C@H]2C1  -9.66%
19. N#Cc1ccc(CNc2cccc(C(=O)N3CCOCC3)c2)cc1  -9.56%
20. NCc1ccccc1Sc1ccc(O)cc1  -8.8%
21. CC(=O)N1CCN(Cc2ccc(OCc3nccn3C)cc2)CC1  -8.75%
22. COc1cccc(S(=O)(=O)NC(=O)CCC2CCCC2)c1  -8.64%
23. COc1ccccc1[C@@H]1CN(Cc2c(C)noc2C)C[C@H]1C(=O)O  -8.62%
24. O=C1NC2(CCN(CCc3ccccc3)CC2)CC1c1ccccc1 (stereo not drawn)  -8.33%
25. CC1CN(c2ccc(CNC(=O)NCCO)cn2)CCO1 (stereo not drawn)  -8.22%
26. CCc1nc(CN2CCN(C(=O)c3cc(C)no3)CC2)cs1  -8.13%
27. Cc1cc(C(=O)N2CC[C@@H]3CO[C@@H](CN4CCCC4)[C@@H]3C2)no1  -7.99%
28. O=C(NC1CC1)c1cc(NC(=O)N2CCCC(O)C2)ccc1Cl (stereo not drawn)  -7.86%
29. CC(NCC1CCS(=O)(=O)CC1)c1cccc(OC(F)F)c1 (stereo not drawn)  -6.96%
30. CC(C)c1ncc2c(n1)CN(Cc1nc(-c3ccccn3)no1)CC2  -6.83%
31. Cc1ccc(CNC(=O)CN2CCN(CCO)CC2)s1  -6.79%
32. Cc1ccc(C#N)c(N2CC(C)(C)[C@@](C)(O)C2)n1  -6.73%
33. CCS(=O)(=O)N1CCC2(CCCN(Cc3cc(OC)ccc3F)C2)C1 (stereo not drawn)  -6.66%
34. CCOc1ccc(CN2CCc3nc4ccsc4c(=O)n3CC2)cc1  -6.57%
35. CCN(C(=O)CCOC)C(c1ccc(Cl)cc1)c1ccccn1 (stereo not drawn)  -6.55%
36. CN1C[C@H](O)C[C@H]1c1nc(-c2ccc(OC(F)(F)F)cc2)no1  -6.54%
37. CC1(C)CNC(=O)c2nc(C3CCCN(S(C)(=O)=O)C3)[nH]c2C1 (stereo not drawn)  -6.33%
38. NC(=O)c1cncc(N2CCN(Cc3cccc4nsnc34)CC2)n1  -5.47%
39. Cc1ccnc2c1NC(=O)CN2C(=O)CCc1cccs1  -5.29%
40. CN(Cc1cc(C[C@@H]2C[C@H](N)C2(C)C)no1)c1ccccc1  -5.24%
41. COCCn1cc(CC(=O)Nc2cc(C)n(C)n2)c2ccccc21  -5.22%
42. CCn1nc(C)cc1S(=O)(=O)N1CCC2(CC(=O)NC2=O)C1 (stereo not drawn)  -5.01%
43. Cc1n[nH]c(C)c1CCN(C)C(=O)C(c1cccnc1)N1CCOCC1 (stereo not drawn)  -4.73%
44. COc1cccc(OCC2CCCN(C3CCN(C(C)=O)CC3)C2)c1 (stereo not drawn)  -4.72%
45. CCCNC(=O)C1CCCN(c2ccc3nncn3n2)C1 (stereo not drawn)  -4.72%
46. Cc1nnc(CN2CCCC2c2ccsc2)o1 (stereo not drawn)  -4.6%
47. N#Cc1cccc(CN2CCC3(CC(C(=O)NCC4CC4)=NO3)C2)c1 (stereo not drawn)  -4.48%
48. O=C(NCc1nncn1-c1ccccc1)C1CCCC1  -4.48%
49. Cn1ncc2c(N3CCN(C(=O)c4ccsc4)CC3)ncnc21  -4.15%
50. O=C(Cc1ccccc1)N1CCN(CC(O)c2ccc(F)cc2)CC1 (stereo not drawn)  -4.03%
51. Cc1c(CNC2CCN(c3ccccc3OC(F)F)C2)cnn1C (stereo not drawn)  -3.92%
52. Cc1ccc(F)c(NCc2ccc(C(=O)N(C)C)[nH]2)c1  -3.46%
53. COc1cc(C)c2c(c1C)C[C@H]([C@H](C)C(=O)O)CC2  -3.45%
54. Cc1nnc(CN(C)C2CCN(c3cccc(-c4cscn4)c3)CC2)o1  -3.22%
55. CS(=O)(=O)N1CC2(CCN(CC3CCCCC3)C2)Cc2ccccc21 (stereo not drawn)  -3.19%
56. CCS(=O)(=O)N1C[C@H]2CN(Cc3cccc(F)c3)C(=O)[C@H]2C1  -3.13%
57. CC(C)c1nc(CN2CCCC2c2cnn(C)c2)cs1 (stereo not drawn)  -2.88%
58. Cn1ccnc1CN1CC[C@@H](NS(C)(=O)=O)[C@@H]1Cc1cccnc1  -2.76%
59. CSCC[C@H](NC(=O)CCn1ccc2c(Cl)cccc21)C(=O)O  -2.74%
60. O=C(NCCN1CCOCC1)N(CCCO)C1CCCc2ccccc21 (stereo not drawn)  -2.32%
61. CC1=C(C(=O)N2CCCC(Cn3cc(CO)nn3)C2)OCCO1 (stereo not drawn)  -2.23%
62. O=C(NCCOC1CCCC1)c1ccc(-c2ccco2)[nH]c1=O  -2.19%
63. O=C(NCCc1ccccn1)[C@@]12CCO[C@@H]1CCN(c1ncccn1)C2  -2.15%
64. Cn1ncc2c(N[C@@H]3C[C@@H]4CC[C@H]3C4)nc(-c3ccncc3)nc21  -2.05%
65. CCNC(=O)[C@@H]1C[C@H](NC(=O)c2cncnc2C)CN1CCCSC  -1.96%
66. COCCC1(CO)CCCN(Cc2ccc(C#N)cc2)C1 (stereo not drawn)  -1.95%
67. COC(=O)N1CCCCC1C(=O)N1CCN(c2ncccc2C)CC1 (stereo not drawn)  -1.8%
68. Cc1cnccc1CN1CC[C@@](C)(O)[C@H](Oc2cccc(F)c2)C1  -1.49%
69. CNC(=O)C1(N(C)CCc2ccccc2)Cc2ccccc2C1  -1.19%
70. CCN(C(=O)c1nc2c(s1)CCCN2C)C(C)C  -1.08%
71. Cc1ccc2cccc(S(=O)(=O)N(C)CC3CCN(C)C3)c2n1 (stereo not drawn)  -0.784%
72. CCCNCc1ccc(-c2cc(N)nc3[nH]ccc23)cc1  -0.725%
73. NC[C@H]1CC[C@H](C(NC(=O)CC2CCCC2)c2ccccn2)CC1 (stereo partly drawn)  -0.374%
74. O=C1NCCCCC1NC(=O)C1(c2cccc(Cl)c2)CC1 (stereo not drawn)  -0.123%
75. COc1ccc(CNC(Cn2cncn2)c2ccccc2)cc1O (stereo not drawn)  -0.077%
76. CC(C)CNC(=O)COc1cccc[n+]1[O-]  0.267%
77. Cc1ccc(CN2CCC3(CCCN(Cc4ccc(F)c(F)c4)C3)C2)o1 (stereo not drawn)  0.359%
78. COC(=O)NCC(=O)N1CCCCC1c1nc2cc(F)ccc2[nH]1 (stereo not drawn)  1.25%
79. Cc1nc(N2CCCC2)nc2c1CCN(C(=O)c1ccoc1C)CC2  1.32%
80. Cn1ccnc1SCCNC(=O)Cn1cnc2ccccc2c1=O  1.77%
81. Fc1ccc(-n2cccn2)c(CN2CCCCC2CCn2ccnc2)c1 (stereo not drawn)  1.83%
82. Cc1cc(CN2CCO[C@H]3[C@H](OCc4csc(C)n4)CC[C@@H]32)no1  2.95%
83. COCCn1cnnc1CN(C)c1nc(N)nc2c1CCCC2  3.03%
84. O=C(NCCNc1cnccn1)N1CCCC(N2CCCC2)C1 (stereo not drawn)  3.31%
85. Cc1nn(C)c(C)c1C1CCCN1Cc1cccc(C(N)=O)c1 (stereo not drawn)  4%
86. Cc1nc2c(c(C)c1CC(=O)Nc1ccccc1F)c(=O)[nH]n2C  4.76%
87. Cc1nc(C)n(CC(=O)N2CCc3ncc(Cl)cc3C2)n1  7.22%
88. CCc1noc(CN(CC)Cc2cc3ccc(C)cc3[nH]c2=O)n1  7.76%
89. CN(C(=O)c1ccccn1)c1nc2c(s1)CCc1c-2cnn1C  8.04%
90. Cc1ncc(C(=O)N2CCC(N3C[C@@H](C)O[C@@H](C)C3)CC2)c(=O)[nH]1  8.83%
91. CC(=O)c1cccc(OCC(=O)N(CC(C)C)C2CCN(C)CC2)c1  10.2%
92. COc1ccc(CNC(=O)NCCc2csc(C)n2)cn1  10.9%
93. CCC(C(=O)N1CCCSCC1)N1CCCC1=O (stereo not drawn)  12.1%
94. CCc1nnc(Nc2cc(C)nc(C3CCN(c4ccncn4)C3)n2)s1 (stereo not drawn)  12.4%
95. CNC(=O)CCCNCc1c(C(C)C)nn(C)c1N(C)C  14.4%
96. O=C(c1cc[nH]n1)N1CCC(Nc2cccnn2)CC1  14.8%
97. O=C(NCCNc1ncccn1)C1CCCC1  15.4%
98. CCOc1nnc(CN2CCN(CCOC)CC2)s1  16.4%
99. COCCNC(=O)C1(c2ccccc2C)CCOCC1  17.1%
100. COc1cc2nc3n(c(=O)c2cc1OC)CCN(C(=O)C1CC1)CC3  20%
101. COc1c(CNCC(O)c2ccccc2F)c(C(C)C)nn1C (stereo not drawn)  21.4%
102. Cn1cc(C(=O)NCc2cncc3c2CCNC3)cn1  23.2%
103. Cc1cnn(CC2CCCN2C(=O)c2cc(C)no2)c1 (stereo not drawn)  25.6%
104. CCOCCn1nc(C)cc1C(=O)N1CC[C@@](O)(COC)C(C)(C)C1  25.9%
105. CN1CCN(C(=O)C2CCCN(c3cccnn3)C2)CC1 (stereo not drawn)  26.4%
106. CC(=O)N1CCc2ccccc2C1CC(=O)NCc1nnc(C)o1 (stereo not drawn)  27.7%
107. O=S(=O)(Nc1cnc(N2CCCC2)nc1)c1ccc(C(F)(F)F)cc1  31.4%
108. O=C(Nc1cccc(CN2CCC(CO)CC2)c1)c1cc(Cl)c[nH]1  32.7%
109. CC(C)c1nc(CN2CCC(CO)CC2)cs1  34.5%
110. COCCN1CCO[C@@H]2CN(Cc3cc(OC)cc(OC)c3)C[C@@H]2C1  36.9%
111. COC(=O)CN(C)Cc1cc(Br)cs1  38.2%
112. COc1ccc(CN(CC2CCCO2)c2nc3c(s2)c(C)nn3C)cc1 (stereo not drawn)  41.8%
113. O=C(CCOc1ccccc1F)N1CCOCC1  44.2%

Source: ChEMBL document CHEMBL3507680, “University of Dundee, Gates Library screen for HepG2 cell viability”
